{
  "source": "the supplement of paper PMC10307832",
  "test_in_all_cases": "relative viability (nuclei count vs DMSO), 5 days (fraction); higher = more cells survive",
  "key": {"RO-3306 + OSI-027": {"compound": "C1=CC2=C(C=CC(=C2)C=C3C(=O)NC(=NCC4=CC=CS4)S3)N=C1 [RO-3306] + COc1cccc2cc(-c3nc([C@H]4CC[C@H](C(=O)O)CC4)n4ncnc(N)c34)[nH]c12 [OSI-027] (partner 0.5 µM)", "summary_of_the_method": "(§1)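 Relative viability divides the nuclei count in treated wells by that in vehicle wells. Lung cancer cell lines were seeded in 1536-well plates, dosed by pin tool the next day, and fixed and stained after 5 days in one step with final 0.05% Triton X-100, 1% formaldehyde and 1 ug/ml Hoechst. Dosing was a single drug or a fixed anchor-drug dose plus five library-drug doses (not always all listed) in √10 steps, and values are medians of duplicate plates imaged at 4×.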"}, "RO-3306 + Lapatinib": {"compound": "C1=CC2=C(C=CC(=C2)C=C3C(=O)NC(=NCC4=CC=CS4)S3)N=C1 [RO-3306] + CS(=O)(=O)CCNCc1ccc(-c2ccc3ncnc(Nc4ccc(OCc5cccc(F)c5)c(Cl)c4)c3c2)o1 [Lapatinib] (partner 2 µM)", "summary_of_the_method": "as §1"}, "RO-3306 + Olaparib": {"compound": "C1=CC2=C(C=CC(=C2)C=C3C(=O)NC(=NCC4=CC=CS4)S3)N=C1 [RO-3306] + O=C(c1cc(Cc2n[nH]c(=O)c3ccccc23)ccc1F)N1CCN(C(=O)C2CC2)CC1 [Olaparib] (partner 8 µM)", "summary_of_the_method": "as §1"}, "[1]": {"compound": "O=S(=O)(c1ccccc1)N(CC(F)(F)F)c1ccc(C(O)(C(F)(F)F)C(F)(F)F)cc1 + CC1(C)CCC(c2ccc(Cl)cc2)=C(CN2CCN(c3ccc(C(=O)NS(=O)(=O)c4ccc(N[C@H](CCN5CCOCC5)CSc5ccccc5)c(S(=O)(=O)C(F)(F)F)c4)cc3)CC2)C1 [Navitoclax] (partner 0.5 µM)", "summary_of_the_method": "as §1"}},
  "data": [
    {"cell line": "UMC-11", "values": [
      {"measurement": "relative viability", "setting": "RO-3306 + OSI-027; first compound 0.01 µM", "value": 0.496},
      {"measurement": "relative viability", "setting": "RO-3306 + OSI-027; first compound 0.03162 µM", "value": 0.384},
      {"measurement": "relative viability", "setting": "RO-3306 + OSI-027; first compound 0.1 µM", "value": 0.456},
      {"measurement": "relative viability", "setting": "RO-3306 + OSI-027; first compound 0.3162 µM", "value": 0.552},
      {"measurement": "relative viability", "setting": "RO-3306 + OSI-027; first compound 1 µM", "value": 0.453},
      {"measurement": "relative viability", "setting": "RO-3306 + Lapatinib; first compound 0.01 µM", "value": 1.06},
      {"measurement": "relative viability", "setting": "RO-3306 + Lapatinib; first compound 0.03162 µM", "value": 0.676},
      {"measurement": "relative viability", "setting": "RO-3306 + Lapatinib; first compound 0.1 µM", "value": 0.829},
      {"measurement": "relative viability", "setting": "RO-3306 + Lapatinib; first compound 0.3162 µM", "value": 0.971},
      {"measurement": "relative viability", "setting": "RO-3306 + Lapatinib; first compound 1 µM", "value": 0.671},
      {"measurement": "relative viability", "setting": "RO-3306 + Olaparib; first compound 0.01 µM", "value": 0.365},
      {"measurement": "relative viability", "setting": "RO-3306 + Olaparib; first compound 0.03162 µM", "value": 0.411},
      {"measurement": "relative viability", "setting": "RO-3306 + Olaparib; first compound 0.1 µM", "value": 0.351},
      {"measurement": "relative viability", "setting": "RO-3306 + Olaparib; first compound 0.3162 µM", "value": 0.385},
      {"measurement": "relative viability", "setting": "RO-3306 + Olaparib; first compound 1 µM", "value": 0.299},
      {"measurement": "relative viability", "setting": "[1]; first compound 0.8 µM", "value": 0.335},
      {"measurement": "relative viability", "setting": "[1]; first compound 2.53 µM", "value": 0.352},
      {"measurement": "relative viability", "setting": "[1]; first compound 8 µM", "value": 0.37}
    ]}
  ]
}
